Test results published in publication PMC9236220 (ACS Chemical Biology, 2022).
pIC50: −log10 of the molar value. Read-outs that look alike come from different tables or passages of the source.

Columns and labels:
MHV-nLuc = test: microbe, parasite or virus in culture; assay type: cell-based, mouse hepatitis virus (MHV); conditions: Murine coronavirus, read-out: MHV-nLuc replication IC50
SARS-CoV-2-nLuc = assay type: cell-based
kinases = conditions: cited from earlier work
WIV1-CoV-nLuc = assay type: cell-based, bat
[1] = test system: SARS-CoV-2 spike protein uptake, Calu-3 cells; assay type: cell-based
[2] = test system: SARS-CoV-2 spike protein uptake, HEK293T-ACE2 cells; assay type: cell-based
SHC014-CoV-nLuc = assay type: cell-based, bat
[3] = test system: SARS-CoV-2 spike protein uptake, Caco-2 cells; assay type: cell-based
SARS-CoV-2 [4] = conditions: cited from earlier work
SARS-CoV-2 [5] = conditions: cited from earlier work; remark: listed apart in the source
Vero cells = conditions: cited from earlier work
A549-ACE2 cells = conditions: cited from earlier work

Row | SMILES | pIC50 (MHV-nLuc) | inhibition of SARS-CoV-2-nLuc replication (SARS-CoV-2-nLuc) | kinases inhibited at 1 μM (kinases) | effect on WIV1-CoV replication (WIV1-CoV-nLuc) | decrease in spike protein uptake [1] [%] | decrease in spike protein uptake [2] | effect on SHC014-CoV replication (SHC014-CoV-nLuc) | decrease in spike protein uptake [3] [%] | inhibition of SARS-CoV-2 infection pIC50, A549-ACE2 cells (SARS-CoV-2 [4]) | pIC50 (SARS-CoV-2 [4]; read-out: inhibition of SARS-CoV-2 infection IC50, A549-ACE2 cells) | antiviral activity pIC50, SARS-CoV-2 in Vero cells (SARS-CoV-2 [5]) | pIC50 (SARS-CoV-2 [5]; read-out: antiviral activity IC50, SARS-CoV-2 in Vero cells) | effect on cell viability of DBT cells (DBT cells) | cell toxicity (Vero cells) | cell toxicity (A549-ACE2 cells)
1 | CC(=O)Nc1ccc2ccn(-c3cc(NC4CCC4)n4ncc(C#N)c4n3)c2c1 [Compound 17] | > 6.00 |  |  |  |  |  |  |  |  |  |  |  |  |  | 
2 | CCC(=O)Nc1cc(Nc2cc(NC3CC3)n3ncc(C#N)c3n2)ccc1C [SGC-CK2-1] | 6.68 | inhibition of viral replication was observed | 3 | dose-dependent decreases in viral replication | > 75 | 70–80% | dose-dependent decreases in viral replication | > 75 |  |  |  |  |  |  | 
3 | O=C(O)c1ccc2c(c1)nc(Nc1cccc(Cl)c1)c1ccncc12 [silmitasertib] | 6.20 |  |  |  |  |  |  |  | < 5 | < 5.00 | 5.6 | 5.60 | no effect on cell viability | cell toxicity at micromolar doses | cell toxicity at micromolar doses
